Values of other authors as cited in patent US7521425B2, “Anti-angiogenic compounds” (Covx Technologies Ireland Limited, priority 2005, dated 2009).

Assays:
h38C2 = settings: against immobilized BSA-conjugated β-diketone 1, read-out: apparent equilibrium dissociation constant
m38C2 = settings: against immobilized BSA-conjugated β-diketone 1, read-out: apparent equilibrium dissociation constant

Row | Structure (SMILES) | Kd (h38C2) [µM] | Kd (m38C2) [µM]
1 | CC(=O)CC(C)=O [β-diketone 2] | 7.6 | 38
2 | CC(=O)CC(=O)CCc1ccccc1 [β-diketone 3] | 1 | 0.43
